The text below walks through data of patent US20180325889A1, “IMMUNOREGULATORY AGENTS” (FLEXUS BIOSCIENCES, INC., priority 2014, published 2018).

The target of this test is T1, human IDO1/HEK293 cells (Homo sapiens, UniProt P14902).
T1 construct: expressed in transfected cells
The experiment in a line: HEK Human IDO-1 cell-based IDO inhibition assay (kynurenine production). The following applies: HEK293 cells stably expressing human IDO1, 20 hours incubation, absorbance at 490 nm; read-out: HEK Human IDO-1 Bio Activity (IDO IC50). The method, then:
They were cultured in medium (DMEM with 10% FBS) containing 1 mg/ml G418 for two weeks.
The human IDO1/HEK293 cells were seeded at 10,000 cells per 50 μL per well with RPMI/phenol red free media contains 10% FBS in a 384-well black wall clear bottom tissue culture plate (Matrix Technologies LLC) 100 nL of certain concentration of compound was then added to each well using ECHO liquid handling systems. The cells were incubated for 20 hours in 37° C. incubator with 5% CO2.
The compound treatments were stopped by adding trichloroacetic acid (Sigma-Aldrich) to a final concentration at 0.2%. The cell plate was further incubated at 50° C. for 30 minute. The equal volume supernatant (20 μL) and 0.2% (w/v) Ehrlich reagent (4-dimethylaminobenzaldehyde, Sigma-Aldrich) in glacial acetic acid were mixed in a new clear bottom 384-well plate. This plate was then incubated at room temperature for 30 minute. The absorbance at 490 nm was measured on Envision plate reader.

T1 sequence (P14902 whole entry): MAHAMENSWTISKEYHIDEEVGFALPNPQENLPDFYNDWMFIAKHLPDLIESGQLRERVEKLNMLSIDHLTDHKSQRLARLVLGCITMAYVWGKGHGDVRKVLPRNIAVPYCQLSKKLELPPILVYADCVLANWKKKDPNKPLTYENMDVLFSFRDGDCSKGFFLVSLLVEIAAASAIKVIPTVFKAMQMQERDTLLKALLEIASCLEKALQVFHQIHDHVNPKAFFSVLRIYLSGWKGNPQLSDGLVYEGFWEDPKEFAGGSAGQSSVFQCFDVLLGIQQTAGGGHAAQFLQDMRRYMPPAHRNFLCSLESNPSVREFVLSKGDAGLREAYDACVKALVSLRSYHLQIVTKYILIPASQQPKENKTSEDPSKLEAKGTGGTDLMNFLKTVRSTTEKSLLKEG

As for `Cc1c(C2CCC(C(C)NC(=O)c3ccc(-c4ccccc4)cc3)CC2)ccnc1F` (single isomer, unassigned) [Example 224, N-(1-(4-(2-fluoro-3-methylpyridin-4-yl)cyclohexyl)ethyl)-[1,1′-biphenyl]-4-carboxamide], the IC50 is under 250 nM. The same measure for `CCC(NC(=O)c1ccc(Cl)cc1)C1CCC(c2cccc(C(F)F)n2)CC1` (single isomer, unassigned) [Example 231b, 4-chloro-N-(1-(4-(6-(difluoromethyl)pyridin-2-yl)cyclohexyl)propyl)benzamide]: under 2000 nM; for `CCC(NC(=O)c1ccc(Cl)cc1)C1CCC(c2cccc(C(F)F)n2)CC1` (single isomer, unassigned) [Example 231c, 4-chloro-N-(1-(4-(6-(difluoromethyl)pyridin-2-yl)cyclohexyl)propyl)benzamide]: under 2000 nM. Turning to `CCC(NC(=O)c1ccc(Cl)cc1)C1CCC(c2cccc(C(F)F)n2)CC1` (single isomer, unassigned) [Example 231d, 4-chloro-N-(1-(4-(6-(difluoromethyl)pyridin-2-yl)cyclohexyl)propyl)benzamide], the IC50 was under 2000 nM. With `CCC(NC(=O)c1ccc(Cl)cc1)C1CCC(c2cccc(C(F)F)n2)CC1` (single isomer, unassigned) [Example 231e, 4-chloro-N-(1-(4-(6-(difluoromethyl)pyridin-2-yl)cyclohexyl)propyl)benzamide], the IC50 is under 50 nM. Regarding `Cc1cccc(S(=O)(=O)N[C@H](C)[C@H]2CC[C@@H](c3ccnc4ccc(F)cc43)CC2)c1` [Example 40, N—((R)-1-((1 s,4S)-4-(6-Fluoroquinolin-4-yl)cyclohexyl)ethyl)-3-methylbenzenesulfonamide], the concentration for half-maximal inhibition (IC50) was under 2000 nM. On to `Cc1ccc(S(=O)(=O)N[C@H](C)[C@H]2CC[C@@H](c3ccnc4ccc(F)cc43)CC2)cc1` [Example 41, N-((R)-1-((1s,4S)-4-(6-fluoroquinolin-4-yl)cyclohexyl)ethyl)-4-methylbenzenesulfonamide], for which the IC50 was under 250 nM.

Turning to `C[C@@H](NS(=O)(=O)c1ccccc1Cl)[C@H]1CC[C@@H](c2ccnc3ccc(F)cc32)CC1` [Example 42, 2-chloro-N-((R)-1-((1s,4S)-4-(6-fluoroquinolin-4-yl)cyclohexyl)ethyl)benzenesulfonamide], the IC50 is under 2000 nM. The same measure for `C[C@@H](NS(=O)(=O)c1ccc(Cl)cc1)[C@H]1CC[C@@H](c2ccnc3ccc(F)cc32)CC1` [Example 43, 4-chloro-N-((R)-1-((1s,4S)-4-(6-fluoroquinolin-4-yl)cyclohcxyl)ethyl)benzenesulfonamide]: under 2000 nM. As to `C[C@@H](NS(=O)(=O)c1cccc(Cl)c1)[C@H]1CC[C@@H](c2ccnc3ccc(F)cc32)CC1` [Example 44, 3-chloro-N-((R)-1-((1s,4S)-4-(6-fluoroquinolin-4-yl)cyclohexyl)ethyl)benzenesulfonamide], the IC50 is under 50 nM.

With `COc1cccc(S(=O)(=O)N[C@H](C)[C@H]2CC[C@@H](c3ccnc4ccc(F)cc43)CC2)c1` [Example 45, N-((R)-1-((1s,4S)-4-(6-fluoroquinolin-4-yl)cyclohexyl)ethyl)-3-methoxybenzenesulfonamide], the concentration for half-maximal inhibition (IC50) was under 2000 nM. For the molecule `COc1ccc(S(=O)(=O)N[C@H](C)[C@H]2CC[C@@H](c3ccnc4ccc(F)cc43)CC2)cc1` [Example 46, N-((R)-1-((1s,4S)-4-(6-fluoroquinolin-4-yl)cyclohexyl)ethyl)-4-methoxybenzenesulfonamide], the IC50 was under 2000 nM. The same measure for `C[C@@H](NC(=O)c1ccc(Cl)cc1)[C@H]1CC[C@@H](c2ccnc3ccc(F)cc32)CC1` [Example 47, 4-Chloro-N—((R)-1-((1 s,4S)-4-(6-fluoroquinolin-4-yl)cyclohexyl)ethyl)benzamide]: under 50 nM; for `C[C@@H](NC(=O)c1ccccc1)[C@H]1CC[C@@H](c2ccnc3ccc(F)cc32)CC1` [Example 48, N-((R)-1-((1s,4S)-4-(6-fluoroquinolin-4-yl)cyclohexyl)ethyl)benzamide]: under 50 nM; for `Cc1ccccc1C(=O)N[C@H](C)[C@H]1CC[C@@H](c2ccnc3ccc(F)cc32)CC1` [Example 49, N-((R)-1-((1s,4S)-4-(6-fluoroquinolin-4-yl)cyclohexyl)ethyl)-2-methylbenzamide]: under 50 nM. On to `Cc1cccc(C(=O)N[C@H](C)[C@H]2CC[C@@H](c3ccnc4ccc(F)cc43)CC2)c1` [Example 50, N-((R)-1-((1s,4S)-4-(6-fluoroquinolin-4-yl)cyclohexyl)ethyl)-3-methyl benzamide], for which the 50% inhibitory concentration (IC50) is under 50 nM.

`Cc1ccc(C(=O)N[C@H](C)[C@H]2CC[C@@H](c3ccnc4ccc(F)cc43)CC2)cc1` [Example 51, N-((R)-1-((1s,4S)-4-(6-fluoroquinolin-4-yl)cyclohexyl)ethyl)-4-methylbenzamide]: the 50% inhibitory concentration (IC50) is under 50 nM.

Turning to `COc1ccccc1C(=O)N[C@H](C)[C@H]1CC[C@@H](c2ccnc3ccc(F)cc32)CC1` [Example 52, N-((R)-1-((1s,4S)-4-(6-fluoroquinolin-4-yl)cyclohexyl)ethyl)-2-methoxybenzamide], the IC50 was under 50 nM. The same measure for `COc1cccc(C(=O)N[C@H](C)[C@H]2CC[C@@H](c3ccnc4ccc(F)cc43)CC2)c1` [Example 53, N-((R)-1-((1s,4S)-4-(6-fluoroquinolin-4-yl)cyclohexyl)ethyl)-3-methoxybenzamide]: under 50 nM. For `C[C@@H](NC(=O)c1ccccc1F)[C@H]1CC[C@@H](c2ccnc3ccc(F)cc32)CC1` [Example 54, 2-fluoro-N-((R)-1-((1s,4S)-4-(6-fluoroquinolin-4-yl)cyclohexyl)ethyl)benzamide], the IC50 was under 50 nM. The same measure for `C[C@@H](NC(=O)c1cccc(F)c1)[C@H]1CC[C@@H](c2ccnc3ccc(F)cc32)CC1` [Example 55, 3-fluoro-N-((R)-1-((1S,4S)-4-(6-fluoroquinolin-4-yl)cyclohexyl)ethyl)benzamide]: under 50 nM; for `C[C@@H](NC(=O)c1ccccc1Cl)[C@H]1CC[C@@H](c2ccnc3ccc(F)cc32)CC1` [Example 56, 2-chloro-N-((R)-1-((1s,4S)-4-(6-fluoroquinolin-4-yl)cyclohexyl)ethyl)benzamide]: under 50 nM; for `C[C@@H](NC(=O)c1cccc(Cl)c1)[C@H]1CC[C@@H](c2ccnc3ccc(F)cc32)CC1` [Example 57, 3-chloro-N-((R)-1-((1s,4S)-4-(6-fluoroquinolin-4-yl)cyclohexyl)ethyl)benzamide]: under 50 nM. As for `C[C@@H](NC(=O)c1ccc(Cl)c(Cl)c1)[C@H]1CC[C@@H](c2ccnc3ccc(F)cc32)CC1` [Example 59, 3,4-dichloro-N-((R)-1-((1s,4S)-4-(6-fluoroquinolin-4-yl)cyclohexyl)ethyl)benzamide], the IC50 is under 50 nM. Take `C[C@@H](NC(=O)c1ccc(F)cc1)[C@H]1CC[C@@H](c2ccnc3ccc(F)cc32)CC1` [Example 60, 4-fluoro-N-((R)-1-((1s,4S)-4-(6-fluoroquinolin-4-yl)cyclohexyl)ethyl)benzamide]: the concentration for half-maximal inhibition (IC50) is under 50 nM.

In the case of `C[C@@H](NC(=O)c1cccc(-c2ccccc2)c1)[C@H]1CC[C@@H](c2ccnc3ccc(F)cc32)CC1` [Example 61, N-((R)-1-((1s,4S)-4-(6-fluoroquinolin-4-yl)cyclohexyl)ethyl)-[1,1′-biphenyl]-3-carboxamide], the 50% inhibitory concentration (IC50) was under 50 nM. Take `C[C@@H](NC(=O)c1cc(Cl)cc(Cl)c1)[C@H]1CC[C@@H](c2ccnc3ccc(F)cc32)CC1` [Example 66, 3,5-dichloro-N-((R)-1-((1s,4S)-4-(6-fluoroquinolin-4-yl)cyclohexyl)ethyl)benzamide]: the IC50 is under 50 nM. Consider `C[C@@H](NC(=O)c1ccccn1)[C@H]1CC[C@@H](c2ccnc3ccc(F)cc32)CC1` [Example 67, N-((R)-1-((1s,4S)-4-(6-fluoroquinolin-4-yl)cyclohexyl)ethyl)picolinamide], for which the IC50 is under 50 nM. On to `COc1ccc(C(=O)N[C@H](C)[C@H]2CC[C@@H](c3ccnc4ccc(F)cc43)CC2)cc1` [Example 68, N-((R)-1-((1s,4S)-4-(6-fluoroquinolin-4-yl)cyclohexyl)ethyl)-4-methoxybenzamide], for which the IC50 is under 50 nM.

As to `C[C@@H](NC(=O)c1ccccc1-c1ccccc1)[C@H]1CC[C@@H](c2ccnc3ccc(F)cc32)CC1` [Example 69, N-((R)-1-((1s,4S)-4-(6-fluoroquinolin-4-yl)cyclohexyl)ethyl)-[1,1′-biphenyl]-2-carboxamide], the IC50 is under 50 nM. In the case of `C[C@@H](NC(=O)c1ccc(-c2ccccc2)cc1)[C@H]1CC[C@@H](c2ccnc3ccc(F)cc32)CC1` [Example 70, N—((R)-1-((1s,4S)-4-(6-fluoroquinolin-4-yl)cyclohexyl)ethyl)-[1,1′-biphenyl]-4-carboxamide], the concentration for half-maximal inhibition (IC50) is under 50 nM. The same measure for `CCC(NC(=O)c1ccc(Cl)cc1)[C@H]1CC[C@H](Oc2ccnc3c(C(F)(F)F)cccc23)CC1` (stereo partly drawn) [Example 72, 4-Chloro-N-(1-((trans)-4-((8-(trifluoromethyl)quinolin-4-yl)oxy)cyclohexyl)propyl)benzamide]: under 2000 nM; for `O=C(Nc1ccc(Cl)cc1)[C@H]1CC[C@H](c2ccnc3ccc(F)cc32)CC1` [Example 75, (trans)-N-(4-Chlorophenyl)-4-(6-fluoroquinolin-4-yl)cyclohexanecarboxamide]: under 250 nM.

In general, IC50 refers to the midpoint of a concentration-inhibition curve.
